Data taken from patent US20090022670A1, “NOVEL COMPOUNDS” (priority 2007, published 2009).
No end group written: not given here.

Legend:
rat Orexin-1 receptor = molecular target: T1, rat Orexin-1 receptor (Rattus norvegicus, UniProt P56718); test: FLIPR antagonist affinity at cloned rat OX1 receptor (RBL cells); assay type: cell-based; conditions: read-out: fpKi
T1 construct: expressed in transfected cells
T1 sequence (P56718 1-416): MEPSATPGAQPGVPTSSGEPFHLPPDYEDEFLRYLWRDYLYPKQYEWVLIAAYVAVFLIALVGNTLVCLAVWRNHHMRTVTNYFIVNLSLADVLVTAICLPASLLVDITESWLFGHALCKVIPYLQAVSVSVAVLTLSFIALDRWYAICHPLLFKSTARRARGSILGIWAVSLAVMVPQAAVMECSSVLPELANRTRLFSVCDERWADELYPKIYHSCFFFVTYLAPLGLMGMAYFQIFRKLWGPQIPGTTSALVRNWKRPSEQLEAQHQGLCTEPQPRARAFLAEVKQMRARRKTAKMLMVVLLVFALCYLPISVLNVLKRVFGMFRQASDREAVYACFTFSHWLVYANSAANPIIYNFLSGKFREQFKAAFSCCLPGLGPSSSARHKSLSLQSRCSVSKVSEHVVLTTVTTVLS
From the text: (§1) Determination of Antagonist Affinity at Human Orexin-1 and 2 Receptors Using FLIPR
(§2) Adherent Chinese Hamster Ovary (CHO) cells, stably expressing the recombinant human Orexin-1 or human Orexin-2 receptors or Rat Basophilic Leukaemia Cells (RBL) stably expressing recombinant rat Orexin-1 or rat Orexin-2 receptors were maintained in culture in Alpha Minimum Essential Medium (Gibco/Invitrogen, cat. no.; 22571-020), supplemented with 10% decomplemented foetal bovine serum (Life Technologies, cat. no. 10106-078) and 400 μg/mL Geneticin G418 (Calbiochem, cat. no. 345810). Cells were grown as monolayers under 95%:5% air:CO2 at 37° C. […]
(§3) Compounds of the invention were tested in a final assay concentration range from 1.66×10^−5M to 1.58×10^−11 M. Compounds of the invention were dissolved in dimethylsulfoxide (DMSO) at a stock concentration of 10 mM. […] This final concentration of hOrexin A was equivalent to the calculated EC80 for hOrexinA agonist potency in this test system. […]
(§4) The loaded cells were then incubated for 10 min at 37° C. with test compound. The plates were then placed into a FLIPR™ (Molecular Devices, UK) to monitor cell fluorescence (λex=488 nm, λEM=540 nm) (Sullivan E, Tucker E M, Dale I L. Measurement of [Ca^2+]i using the fluometric imaging plate reader (FLIPR). In: Lambert DG (ed.), Calcium Signaling Protocols. New Jersey: Humana Press, 1999, 125-136). […]

rat Orexin-2 receptor = molecular target: T2, rat Orexin-2 receptor (Rattus norvegicus, UniProt P56719); test: FLIPR antagonist affinity at cloned rat OX2 receptor (RBL cells); assay type: cell-based; conditions: read-out: fpKi
T2 construct: expressed in transfected cells
T2 sequence (P56719 1-460): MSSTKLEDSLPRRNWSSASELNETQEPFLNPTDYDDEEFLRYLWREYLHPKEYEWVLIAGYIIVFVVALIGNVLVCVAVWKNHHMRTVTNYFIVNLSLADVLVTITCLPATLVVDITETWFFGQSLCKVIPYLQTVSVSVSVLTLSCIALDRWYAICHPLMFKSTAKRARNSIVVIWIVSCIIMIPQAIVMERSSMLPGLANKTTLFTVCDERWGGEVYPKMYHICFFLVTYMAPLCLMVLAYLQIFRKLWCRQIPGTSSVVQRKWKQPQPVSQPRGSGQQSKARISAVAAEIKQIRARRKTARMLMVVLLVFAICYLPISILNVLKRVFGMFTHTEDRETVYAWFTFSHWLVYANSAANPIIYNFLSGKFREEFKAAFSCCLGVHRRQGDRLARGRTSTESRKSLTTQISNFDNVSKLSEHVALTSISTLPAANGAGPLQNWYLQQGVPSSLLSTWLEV
From the text: as §1, §2, §3, §4

rats [1] = conditions: cited from earlier work
rats [2] = conditions: cited from earlier work; remark: listed apart in the source
freely-feeding rats = conditions: central administration, 4 hour time period; cited from earlier work
rats [3] = conditions: central administration at the onset of the normal sleep period; cited from earlier work

Row | Ki (rat Orexin-1 receptor) | Ki (rat Orexin-2 receptor) | Molecule | further results
1 | 1 to 5.01 nM | 0.316 to 1 nM | Cc1nc(C(=O)N2CCCC[C@H]2Cc2cn3cc(F)cc(C)c3n2)c(-c2ccccc2)s1 [Example 31, 6-fluoro-8-methyl-2-({(2S)-1-[(2-methyl-5-phenyl-1,3-thiazol-4-yl)carbonyl]-2-piperidinyl}methyl)imidazo[1,2-a]pyridine] | –
2 | – | – | Cc1nc2ccc(NC(=O)Nc3ccnc4cccnc34)cc2o1 [SB334867] | hedonic eating (rats [1]): potently reduced; high-fat pellet self-administration (rats [2]): attenuated
3 | – | – | orexin-A: ligand for the orexin-1 receptor; an agonist of the orexin receptors (QPLPDCCRQKTCSCRLYELLHGAGNHAAGILTL; ends and bridges not checked; cysteine pairing not given here; UniProt O43612 34-66, looked up) | increase of food intake over control rats receiving vehicle (freely-feeding rats): approximately four-fold; arousal (rats [3]): dose-related increase
4 | 1 to 5.01 nM | 0.316 to 1 nM | Cc1nc(C(=O)N2CCCC[C@H]2Cc2cn3cccc(F)c3n2)c(-c2ccccc2)s1 [Example 13, 8-fluoro-2-({(2S)-1-[(2-methyl-5-phenyl-1,3-thiazol-4-yl)carbonyl]-2-piperidinyl}methyl)imidazo[1,2-a]pyridine] | –
